Laboratory results taken from patent US8053465B2, “Bicycloester derivative” (Kyorin Pharmaceutical Co., Ltd., priority 2004, dated 2011).

Experiments:
[1] = target: T1, plasma dipeptidylpeptidase IV (Homo sapiens, UniProt P27487); assay: In vitro dipeptidylpeptidase IV inhibitory activity (plasma, H-Gly-Pro-AMC fluorometry); format: biochemical; conditions: plasma diluted 8-fold, H-Gly-Pro-AMC.HBr substrate, room temperature 20 minutes
T1 construct: 20 μL of plasma diluted 8-fold with saline in a well of a 96-well flat bottom plate; from tissue
Experimental: The concentration of free 7-amino-4-methyl-coumarin (AMC) generated by hydrolysis of H-Gly-Pro-AMC.HBr substrate by plasma dipeptidylpeptidase IV was determined by fluorometry.
A 20 μL of buffer (25 mmol/L hepes, 140 mmol/L sodium chloride, 1% bovine serum albumin, 80 mmol/L magnesium chloride hexahydrate, pH 7.4) containing each compound was added to 20 μL of plasma diluted 8-fold with saline in a well of a 96-well flat bottom plate. The plate was left at room temperature for 5 minutes and 10 μL of 0.1 mmol/L H-Gly-Pro-AMC.HBr solution was added to each well to initiate the reaction. […] Using a fluorescent plate reader, the free AMC concentration was determined by exciting the samples at 355 nm and measuring the fluorescence intensity at 460 nm.

[2] = target: T2, plasma dipeptidylpeptidase IV (Mus musculus, UniProt P28843); assay: Inhibition of plasma dipeptidylpeptidase IV activity in mice by oral administration; format: in vivo; conditions: male ICR mice, 0.1 mg/mL suspension at 10 mL/kg, 30 minutes after administration
T2 construct: The blood samples were centrifuged at 6000 rpm for 2 minutes to separate plasma; tissue Charles River Laboratories Japan; host or cells: plasma of male ICR mice
Experimental: Each compound was suspended in 0.3% sodium carboxymethylcellulose to a concentration of 0.1 mg/mL. The preparation was orally administered to 8-week old male ICR mice (Charles River Laboratories Japan) at a dose of 10 mL/kg. Using an EDTA 2K-treated capillary tube, blood samples were collected from the tail vein before administration and 30 minutes after administration. The blood samples were centrifuged at 6000 rpm for 2 minutes to separate plasma. […] The inhibition was determined from the decrease in the enzymatic activity from the initial activity (% inhibition={(activity before administration−activity after administration)/(activity before administration)}×100).

T1 sequence (P27487 whole entry): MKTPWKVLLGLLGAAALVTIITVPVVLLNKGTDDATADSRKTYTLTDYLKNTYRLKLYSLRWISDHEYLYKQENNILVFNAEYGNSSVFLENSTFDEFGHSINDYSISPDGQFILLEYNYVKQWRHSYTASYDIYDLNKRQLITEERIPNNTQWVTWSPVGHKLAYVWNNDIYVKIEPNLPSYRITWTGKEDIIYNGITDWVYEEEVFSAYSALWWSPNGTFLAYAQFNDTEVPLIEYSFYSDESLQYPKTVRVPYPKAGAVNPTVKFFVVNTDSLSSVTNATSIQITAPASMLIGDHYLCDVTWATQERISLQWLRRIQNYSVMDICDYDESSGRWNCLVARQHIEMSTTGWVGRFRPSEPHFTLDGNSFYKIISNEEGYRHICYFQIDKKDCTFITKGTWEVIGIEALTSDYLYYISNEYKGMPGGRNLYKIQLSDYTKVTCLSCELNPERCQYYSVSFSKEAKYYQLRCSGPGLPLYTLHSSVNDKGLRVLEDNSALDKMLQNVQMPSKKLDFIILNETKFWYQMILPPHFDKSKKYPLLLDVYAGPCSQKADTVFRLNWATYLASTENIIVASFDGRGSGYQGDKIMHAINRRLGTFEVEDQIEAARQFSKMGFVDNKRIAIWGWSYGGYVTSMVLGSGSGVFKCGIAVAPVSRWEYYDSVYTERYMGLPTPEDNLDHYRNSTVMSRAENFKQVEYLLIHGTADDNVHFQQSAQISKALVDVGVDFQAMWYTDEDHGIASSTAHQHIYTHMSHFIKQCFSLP
T2 sequence (P28843 whole entry): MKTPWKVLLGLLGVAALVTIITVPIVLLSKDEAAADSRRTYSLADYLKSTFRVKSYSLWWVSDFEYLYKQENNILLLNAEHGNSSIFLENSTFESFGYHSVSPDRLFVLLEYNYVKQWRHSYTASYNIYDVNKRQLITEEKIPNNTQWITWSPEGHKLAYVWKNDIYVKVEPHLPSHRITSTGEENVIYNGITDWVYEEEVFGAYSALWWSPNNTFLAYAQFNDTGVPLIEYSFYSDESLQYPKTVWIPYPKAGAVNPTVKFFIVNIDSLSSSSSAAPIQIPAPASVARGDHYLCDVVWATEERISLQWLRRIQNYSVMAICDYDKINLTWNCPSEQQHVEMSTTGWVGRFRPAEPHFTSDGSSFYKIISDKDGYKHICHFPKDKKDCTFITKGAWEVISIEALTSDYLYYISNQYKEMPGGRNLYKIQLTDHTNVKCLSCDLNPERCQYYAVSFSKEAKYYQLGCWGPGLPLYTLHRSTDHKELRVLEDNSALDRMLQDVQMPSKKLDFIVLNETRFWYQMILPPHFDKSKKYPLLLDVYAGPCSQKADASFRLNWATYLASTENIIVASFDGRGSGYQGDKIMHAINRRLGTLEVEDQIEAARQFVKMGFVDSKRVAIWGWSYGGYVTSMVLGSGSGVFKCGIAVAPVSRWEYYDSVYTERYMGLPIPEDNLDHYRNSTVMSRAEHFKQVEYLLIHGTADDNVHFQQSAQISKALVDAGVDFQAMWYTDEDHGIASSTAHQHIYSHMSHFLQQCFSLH

| SMILES | IC50 [1] [nM] | inhibition at 100 µg/mL (stock) [2] [%] |
| --- | --- | --- |
| N#C[C@@H]1C[C@H](F)CN1C(=O)CNC12CCC(C(=O)OCc3ccc(C(F)(F)F)cc3)(CC1)CC2 [Example 10, (2S,4S)-4-fluoro-1-[[N-[4-(4-trifluoromethylbenzyl)oxycarbonylbicyclo[2.2.2]oct-1-yl]amino]acetyl]pyrrolidine-2-carbonitrile] | 0.23 | – |
| N#C[C@@H]1C[C@H](F)CN1C(=O)CNC12CCC(C(=O)OCC3CC3)(CC1)CC2 [Example 9, (2S,4S)-1-[[N-(4-cyclopropylmethyloxycarbonylbicyclo[2.2.2]oct-1-yl)amino]acetyl]-4-fluoropyrrolidine-2-carbonitrile] | 0.48 | 94 |
| CCOC(=O)C12CCC(NCC(=O)N3C[C@@H](F)C[C@H]3C#N)(CC1)CC2 [Example 1, (2S,4S)-1-[[N-(4-ethoxycarbonylbicyclo[2.2.2]oct-1-yl)amino]acetyl]-4-fluoropyrrolidine-2-carbonitrile] | 0.25 | 100 |
| CC(C)COC(=O)C12CCC(NCC(=O)N3C[C@@H](F)C[C@H]3C#N)(CC1)CC2 [Example 11, (2S,4S)-4-fluoro-1-[[N-[4-(2-methylpropyl)oxycarbonylbicyclo[2.2.2]oct-1-yl]amino]acetyl]pyrrolidine-2-carbonitrile] | 0.13 | 93 |
